Assay results as given in ChEMBL document CHEMBL3352745, “Serotonin 5-HT6 receptor antagonists for the treatment of cognitive deficiency in Alzheimer's disease” (J Med Chem, 2014).

Target: T1, 5-hydroxytryptamine receptor 6 (Homo sapiens, UniProt P50406)
Assay: Inhibition of human recombinant 5HT6 receptor expressed in CHO cells
Assay type: cell-based
Conditions: not given

T1 sequence (P50406 whole entry): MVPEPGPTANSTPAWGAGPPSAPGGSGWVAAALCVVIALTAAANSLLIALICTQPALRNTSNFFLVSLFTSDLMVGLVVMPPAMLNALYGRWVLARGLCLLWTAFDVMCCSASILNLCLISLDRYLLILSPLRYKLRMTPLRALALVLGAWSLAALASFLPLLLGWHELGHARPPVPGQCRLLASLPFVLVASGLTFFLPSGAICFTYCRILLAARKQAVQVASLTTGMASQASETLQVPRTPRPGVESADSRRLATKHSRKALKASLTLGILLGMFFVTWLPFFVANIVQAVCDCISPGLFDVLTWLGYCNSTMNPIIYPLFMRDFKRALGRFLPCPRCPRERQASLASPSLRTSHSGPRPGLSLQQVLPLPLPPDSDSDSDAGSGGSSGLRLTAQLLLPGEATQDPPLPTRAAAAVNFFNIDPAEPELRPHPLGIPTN

| SMILES | IC50 |
| --- | --- |
| CN1CC=C(c2cn(S(=O)(=O)c3cccc4ccccc34)c3ccc(F)cc23)CC1 | 24 nM |
| Nc1ccc(S(=O)(=O)c2cc(Br)nc(N3CCCC3)c2)cc1 | 3.2 nM |
| COc1ccc(NS(=O)(=O)c2ccc(Br)cc2)cc1N1CCN(C)CC1 | 16 nM |
| CN1CCC[C@@H]1Cc1cn(S(=O)(=O)c2ccccc2)c2ccc(Cl)cc12 | 8.5 nM |

Tested on: not listed separately
Assay: Half life in rat
Assay type: ADME, organism-based
Conditions: in vivo

| SMILES | half-life |
| --- | --- |
| COc1ccc(NS(=O)(=O)c2sc3ccc(Cl)cc3c2C)cc1N1CCNCC1 | 4.8 h |

Tested on: not listed separately
Assay: Ratio of drug level in brain to plasma in rat
Assay type: ADME
Conditions: brain and plasma, read-out: BPR

| SMILES | Kp |
| --- | --- |
| CN1CC=C(c2cn(S(=O)(=O)c3cccc4ccccc34)c3ccc(F)cc23)CC1 | 43 |
| CN1CCC[C@@H]1Cc1cn(S(=O)(=O)c2ccccc2)c2ccc(Cl)cc12 | 23 |

Tested on: not listed separately
Assay: Oral bioavailability in rat
Assay type: ADME, organism-based
Conditions: in vivo

| SMILES | bioavailability |
| --- | --- |
| CN1CC=C(c2cn(S(=O)(=O)c3cccc4ccccc34)c3ccc(F)cc23)CC1 | 19% |
| CN1CCC[C@@H]1Cc1cn(S(=O)(=O)c2ccccc2)c2ccc(Cl)cc12 | 17% |
| COc1ccc(NS(=O)(=O)c2sc3ccc(Cl)cc3c2C)cc1N1CCNCC1 | > 80% |
| O=S(=O)(c1ccccc1)c1cnc2c(N3CCNCC3)cccc2c1 [INTEPIRDINE] | 76% |

Target: T1, 5-hydroxytryptamine receptor 6
Assay: Antagonist activity at human recombinant 5HT6 receptor expressed in CHO cells
Assay type: cell-based
Conditions: not given

| SMILES | Ki |
| --- | --- |
| CN1CC=C(c2cn(S(=O)(=O)c3cccc4ccccc34)c3ccc(F)cc23)CC1 | 1 nM |
| COc1ccc(NS(=O)(=O)c2ccc(I)cc2)cc1N1CCNCC1 | 2.3 nM |
| O=S(=O)(c1cccc(Cl)c1)n1ccc2c(N3CCNCC3)c(Cl)ccc21 | 0.3 nM |
| O=S(=O)(Nc1ccc2c(c1)CNCCC2)c1csc(C(F)(F)F)c1-c1ccccc1 | 32 nM |
| COc1ccc(Cl)cc1NS(=O)(=O)c1ccc(OC)c2c1CC[C@H](N(C)C)C2 | 1.7 nM |
| Fc1ccc2c(c1)c(C1=CCNCC1)cn2Cc1ccccc1 | 10 nM |
| O=C(c1ccccc1)n1cc(C2=CCNCC2)c2cc(F)ccc21 | 99 nM |
| O=C(Nc1ccccc1)n1cc(C2=CCNCC2)c2cc(F)ccc21 | 118 nM |
| CN1CCN(c2cccc3c(S(=O)(=O)c4ccccc4)c[nH]c23)CC1 | 0.5 nM |
| O=S(=O)(c1cccc(F)c1)c1c[nH]c2c(OCCN3CCCC3)cccc12 | 20 nM |
| CN1CCC(c2cn(C)c3cc(OS(=O)(=O)c4c(F)cccc4F)ccc23)CC1 | 1 nM |
| Cc1cc(C)cc(S(=O)(=O)c2ccc3ccnc(N4CCNCC4)c3c2)c1 | 11 nM |
| CSc1nn2c(N3CCNCC3)nc(C)nc2c1S(=O)(=O)c1ccccc1 | 1.2 nM |
| O=c1n(C2=CCNCC2)c2ccccc2n1S(=O)(=O)c1ccc2ccccc2c1 | 5.7 nM |
| O=S(=O)(c1cccc(Cl)c1Cl)N1CCc2c(cccc2N2CCNCC2)C1 | 0.04 nM |
| COc1ccc(C)cc1S(=O)(=O)Nc1cc(OC2CCNCC2)c2occc2c1 | 1.2 nM |
| O=S(=O)(c1ccccc1)c1ccc2c(c1)OCCC2N1CCNCC1 (stereo unspecified) | 0.4 nM |
| CNC[C@@H]1COc2ccc(S(=O)(=O)c3ccccc3)cc2O1 | 0.2 nM |
| O=S(=O)(c1ccccc1)c1ccc(C2CCNCC2)c2ccccc12 | 3.8 nM |
| N=C(N)CCC1CCCc2cc(S(=O)(=O)c3ccccc3)ccc21 (stereo unspecified) | 59 nM |
| CN1CCCC1Cc1c[nH]c2ccc(OC3CCCCC3)cc12 (stereo unspecified) | 0.93 nM |
| COc1cc(N2CCNCC2)c2ncc(C)c(Oc3ccccc3)c2c1 | 1 nM |
| COc1cc(Cn2c(=O)ccc3cccc(OC)c32)cc(N2CCNCC2)c1 | 0.9 nM |
| O=C1COc2c(N3CCNCC3)cccc2N1Cc1ccccc1 | 0.2 nM |
| O=C1c2cccc(N3CCNCC3)c2Oc2ccc(F)cc2N1Cc1cccc(C(F)(F)F)c1 | 0.3 nM |
| O=c1[nH]c2c(N3CCNCC3)cccc2n1Cc1ccccc1 | 0.3 nM |
| Clc1ccc(-c2[nH]c3ccccc3c2/C=N/NC2=NCCN2)cc1 | 10 nM |
| CC(Nc1ccc2c(c1)CCNCC2)c1ccccc1Cl (stereo unspecified) | 14 nM |
| Cc1c(S(=O)(=O)Nc2cc3c(c(N4CCN(C)CC4)c2)OCC3)sc2ccc(Cl)cc12 | 1.6 nM |
| CN1CC2c3ccccc3Oc3ccc(Cl)cc3C2C1 (stereo unspecified) [ASENAPINE] | 0.25 nM |
